Assay results: patent publication US20230277483A1, “COMPOSITIONS AND METHODS TO TREAT INFLAMMATION” (University of Iowa Research Foundation, priority 2022, published 2023)

Tests used:
[1] = system: HGF; experiment: Anti-inflammatory miR expression after Pg-LPS challenge; assay type: cell-based, human; conditions: 24 hours after Pg-LPS challenge
Description: FIGS. 11A-11B. Sg metabolites upregulate anti-inflammatory miRs in human macrophages and HGF. A-B: Relative transcript changes of miR-200c, 146a, and 21 in HGF (A) and human MDM (B) treated with AICAR, MA, HCA, and HPLA 24 hours after Pg-LPS challenge; performed in duplicate.

[2] = system: C57BL/6J mice; experiment: Pg-LPS gingival injection mouse model of periodontal inflammation; assay type: in vivo; conditions: 100 μl of HCA at 0.5 μM I.P. three times a week, 3 weeks
[3] = system: epidydimal white adipose tissues (eWAT); experiment: eWAT explants from mice on a HFD for 16 weeks; assay type: cell-based, mouse; conditions: HCA at 0.5 and 1.0 μM; 16 hours post treatment
Description: (§1) In addition, freshly isolated epidydimal white adipose tissues (eWAT) from mice on a HFD for 16 weeks were minced and cultured in 24-well plates and treated with HCA at 0.5 and 1.0 μM in DMEM/F-12 containing 10% cosmic calf serum (CCS) and 1% penicillin-streptomycin (basal growth media, BGM). […] These preliminary data are strong evidence that Sg metabolites have the potential to modulate host inflammatory responses and attenuate inflammation.

[4] = system: human monocyte-derived macrophages (MDM) using THP-1 cells; experiment: Proinflammatory cytokines after Pg-LPS challenge (qRT-PCR, ELISA); assay type: cell-based
Description: Sg metabolites modulate proinflammatory cytokines in human periodontal associated cells in vitro. Sg were cultured in a total of 40 ml DMEM for 24 hrs. After 200 μl of Sg suspension reached 0.2 at OD600 value in a 96-well plate, the Sg metabolites were collected by centrifugation at 3000 g for 10 min and then filtered through a 0.22 μm filter. No toxicity of Sg metabolites was detected using an MTT assay on primary human bone marrow mesenchymal stromal cells (BMSCs) and primary human gingival fibroblasts (HGF) (data no shown). The modulation of Sg metabolites on inflammatory cytokines was tested using human monocyte-derived macrophages (MDM) and HGF. The MDM were generated by inducing a human macrophage cell line (THP-1) using PMA at 10 ng/ml. The MDM at 2×10^6 cells/per well and HGF at 2×10^4 cells/per well were cultured in 24-well plates using DMEM with 10% FBS and 1% PS. The Sg metabolites at 1 and 5% v/v were added and incubated for 24 hrs before challenging with Pg-LPS at 100 ng/ml.
Human monocyte-derived macrophages (MDM) using THP-1 cells and HGF were cultured in a 24-well plate with DMEM and challenged with Pg-LPS at 100 ng/ml.
as §1
HCA promotes proliferation of health related bacteria and inhibits proliferation and attachment of periodontopathogenic bacteria. Promoting the growth of health-related commensal bacteria while inhibiting proliferation and attachment of pathogenic bacteria may be effective at preventing or treating periodontal inflammation. To determine if HCA has an effect on the growth properties of commensal bacteria and periodontopathogens, HCA at different concentrations was added to aerobic culture of S. mitis and S. oralis and anaerobic culture of T. denticola as described in our published manuscript (see detail in Shu et al, Journal of Periodontology, 2022). FIGS. 18A-C summarize the functions of HCA on the proliferation of specific commensal and pathogenic bacteria. […] Furthermore, the function of HCA on P. gingivalis attachment, a key parameter of adhesion and biofilm formation by periodontopathogenic bacteria, was investigated. […] Attachment measurements of P. gingivalis were performed based on our published studies (see detail in Shu et al, Journal of Periodontology, 2022). […] To test the biocompatibility and anti-inflammatory properties of HCA, human monocyte-derived macrophages (MDM) and gingival fibroblasts (HGF) were prepared as described in our previous studies. The cells were then treated with HCA from 0.1 to 50 μM. No toxicity was observed after treatment with different concentrations of HCA in either cell type using an MTT assay (FIGS. 19A and B, left column). The anti-inflammatory function of HCA on MDM and HGF after exposure to P. gingivalis lipopolysaccharide (PG-LPS) was investigated. […] HCA mitigates inflammation and affects the composition of microbiomes in vivo. Recent studies investigated whether HCA modulates periodontal inflammation using a mouse model. To induce periodontal inflammation, a total of 1 μl Pg-LPS at 10 μg/μl was directly injected twice a week into the interdental region between maxillary molars of C57BL/6J mice using a Hamilton1700 series syringe according to our previously published studies. 100 μl of HCA at 0.5 μM was administrated I.P. three time a week. […] It was also tested whether HCA affects the composition of the microbiome in vivo. For this purpose, high fat diet-induced obese (DIO) mice (The Jackson Laboratory) received I.P, administration of 100 μl of HCA at 0.2 and 0.5 μM three times a week for 3 weeks. […]

O=C(O)CCCCCO [HCA, 6-hydroxycaproic acid]
anti-inflammatory miRs (miR-200c, 146a, and 21) [1]: upregulate | serum IL-1β production (ELISA) [2]: significantly reduced | gingival IL-1β expression (qRT-PCR) ([2]; Pg-LPS twice a week): suppressing gingival IL-1β expression | protein level of IL-6 in cultured media [3]: significantly reduced | transcripts of IL-6, IL-1β, and Nos2 [3]: significantly reduced | transcripts of IL-1β, IL-6, and IL-8 ([4]; HCA at 0.1 μM, 6 hours following PG-LPS challenge at 0.1 μg/mL): significantly downregulated | protein levels of IL-6 and IL-8 ([4]; HCA at 0.1 μM, supernatant, after 24 hrs): significantly reduced | transcripts of IL-1β, 6, and 8 ([4]; HCA at 0.1 and 1.0 μM, Pg-LPS at 100 ng/ml, after 6 hrs): significantly downregulated | proinflammatory cytokines (IL-6 transcript and IL-6 protein in supernatants) ([4]; at 0.1 μg after Pg-LPS challenge): modulate
